Source: patent US20030082803A1, “Cell cycle control” (priority 1999, published 2003)

How the values were obtained:
[1] = tested on: mES cells; assay: Cell cycle arrest and cell cycle structure by flow cytometry of PI-stained mES cells; format: cell-based, murine; settings: up to concentrations of 140 μM
Method: Cdk2 activity levels determine the rate of mES cell division but not cell cycle structure. (A) mES cells were grown for up to 8 passages in the presence (+) or absence (−) of Ro09-3033 (2 μM). Cdk2, cyclin E and cyclin B-associated H1 kinase activities were assayed as described previously after immunoprecipitation from whole cell lysates (100 μg protein). Input loading control was determined by probing immunoblots (15 μg lysate protein) with α-Cdk2 and α-Oct4 polyclonal antibodies. Quantitation of H1 kinase activities are shown in the lower panel as the average of two independent experiments. (B) Northern blot analysis of Oct4, Rex-1 and GAPDH transcripts from mES cells grown with (+) or without (−) inhibitor (2 μM) for the number of passages indicated. RNA was resolved by agarose gel electrophoresis, blotted and hybridized with [^32P]-labelled Oct4, Rex-1 and GAPDH probes (15 μg total RNA per lane). […] (C) After 8 passages in the presence (+) or absence (−) of 2 μM Ro09-3033, mES and mEPL cells were fixed and stained with PI and analysed by flow cytometry. […] Generation times of mEPL cells were not determined in this experiment.
In preparation for flow cytometry, cells were resuspended in 300 μl of PBS supplemented with 1% FCS. […] Cells were stained by the addition of 2.5 mg/ml propidium iodide (Sigma) and 0.5 mg/ml RNAase A and analysed on a Beckman-Coulter flow cytometer with WinMDi software.

[2] = accumulation of cells at G1/S or G2/M, reference (31); cited from earlier work

CC[C@H](CO)Nc1nc(NCc2ccccc2)c2ncn(C(C)C)c2n1 [roscovitine]
Effect on cell division times or cell cycle structure in mES cells [1]: no effect | Concentration range in which it typically acts as a cell cycle specific inhibitor [2]: 20 to 30 µM
